Results as given in US20160166604A1, “Thiol-Sensitive Positive Inotropes” (priority 2005, published 2016).
“Also recorded” adds a separate entry of the source.

How the values were obtained:
Assay type in all cases: cell-based
isolated mouse myocytes = experiment: SR Ca2+ stores by rapid caffeine infusion in mouse myocytes; settings: 1 mM AS; caffeine alone 223±34; n=8
Method: (§1) Nitroxyl (HNO) confers positive inotropy in vivo. Here, it was determined whether HNO action stems from a direct influence on sarcoplasmic reticulum (SR) Ca^2+ cycling, involving enhanced Ca^2+ release from ryanodine receptors (RyR2). Myocytes were isolated from ST mice, suspended in Tyrode's solution (1 mM Ca^2+) and field stimulated (0.5 Hz, 25° C.). Sarcomere shortening (SS) was assessed by real-time image analysis, Ca^2+ transients from Indo-1 fluorescence. RyR2 activity was determined by optical imaging of Ca^2+ release from single Ca^2+ release units. The HNO donor Angeli's Salt (AS) induced dose-dependent inotropy (SS: 73±31% at 0.5 mM; 131±31% at 1 mM; all n=15, p<0.05 vs. base; <0.1 mM: no effect). In contrast, the NO donor DEA/NO reduced SS by 55-65% at 5-50 μM (both p<0.05 vs. base), with no effect at higher doses. […] However, co-infusion with the thiol-donating compound N-acetyl-L-cysteine (NAC, 3 mM) abolished AS inotropy.

cAMP = cAMP FRET imaging in neonatal rat cardiomyocytes; settings: 1 mM AS, n=23, p=NS
Method: Primary cultures of cardiac ventricular myocytes from 1-3 days old Sprague Dawley rats (Charles River Laboratories, Wilmington, Mass.) were prepared as described. Dostal, D. E. et al., Am. J. Physiol., 263, […]-[…] (1992). Cells were transfected with a FRET-based sensor for cAMP (Zaccolo, M. et al., Science, 295, 1711-1715 (2002)) and imaged 48 hrs after transfection. During the experiments, cells were continuously perfused with HEPES buffered Ringer's modified saline (1 mmol/LCaCl2) at room temperature. Cells were imaged on an inverted Olympus IX50 microscope upon excitation at 430 nm. Mongillo, M. et al., Circ. Res., 98, 226-234 (2006). Image analysis was performed by using ImageJ (Rasband, W. S., ImageJ, National Institutes of Health, Bethesda, Md., USA). At each time point, FRET values were measured as the 480 nm/535 nm emission ratio intensity (R) and were normalized to the 480 nm/535 nm value at time 0s (R0). Agents that increase peak Ca^2+ transients coupled to increased sarcomere shortening often do so via a rise in intracellular cAMP and subsequent activation of protein kinase A ([…]. et al., Curr. Med. Chem., 10, 967-981 (2003). To test whether this applied to AS, real-time imaging of cAMP on transfected neonatal rat cardiomyocytes was performed with a cAMP FRET-probe. Zaccolo, M. et al., Science, 295, 1711-1715 (2002). Upon exposure to 1 mM AS, the FRET signal was unchanged (0.3%±0.1%, n=23, p=NS), whereas subsequent application of norepinephrine (10 μM) or phosphodiesterase inhibitor IBMX (100 μM) both increased it by 12% (p<10^-6) (FIG. 2A). Pre-treatment of adult mouse myocytes with the PKA inhibitor […]

RyR2 = molecular target: T1, RyR2 (Mus musculus, UniProt E9Q401); experiment: Spontaneous Ca2+ sparks and spark frequency in intact murine myocytes
T1 construct: endogenous in cells; host or cells: freshly isolated adult mouse cardiac myocytes
Method: Freshly isolated mouse cardiac myocytes were loaded with the Ca^2+ indicator fluo-4/AM (Molecular Probes, 20 μM for 30 min). Confocal images were acquired using a confocal laser-scanning microscope (LSM510, Carl Zeiss) with a Zeiss Plan-Neofluor 40× oil immersion objective (NA≈1.3). Fluo-4/AM was excited by an argon laser (488 nm), and fluorescence was measured at >505 nm. Images were taken in the line-scan mode, with the scan line parallel to the long axis of the myocytes. Each image consisted of 512 line scans obtained at 1.92 ms intervals, each comprising 512 pixels at 0.10 μm separation. Digital image analysis used customer-designed programs coded in Interactive Data language (IDL) and a modified spark detection algorithm. Cheng, H. et al., Biophys. J., 76, 606-617 (1999).
as §1

[1] = tested on: isolated rat ventricular myocytes; experiment: Whole Ca2+ transients and SR Ca2+ load in isolated rat ventricular myocytes (Indo-1, caffeine)
Method: Isolation of ventricular myocytes from rats was carried out as previously described. Bassani, R A. et al., J. Mol. Cell Cardiol., 26, 1335-1347 (1994). The enzyme used for tissue dissociation was Liberase Blendzyme 3 or 4 (13-20 Wuensch Units/Heart) sometimes supplemented with 5-10 Units of Dispase II (both Roche Diagnostics, Indianapolis, Ind.). When the heart became flaccid, left ventricular tissue was cut into small pieces for further incubation (5 to 10 min at 37° C.) in enzyme solution. The tissue was dispersed, filtered, and suspensions rinsed several times before used for experiments. Isolated rat ventricular myocytes were then plated onto superfusion chambers, with the glass bottoms treated with natural mouse laminin (Invitrogen, Carlsbad, Calif.). The standard Tyrode's solution used in all experiments contained (in mM): NaCl 140, KCl 4, MgCl2 1, glucose 10, HEPES 5, and CaCl2 1, pH 7.4. Myocytes were loaded with 6 μM Indo-1/AM for 25 min and subsequently perfused for at least 30 min to allow for deesterfication of the dye. Some cells were pretreated with 0.5 mM AS (in some Caffeine experiments with 1 mM), washed and then loaded with Indo-1/AM. Concentration of the AS stock solution was verified by absorbance at 250 nm. All experiments were done at room temperature (23-25° C.) using field stimulation. Ca^2+-transients were recorded with Clampex 8.0 and data analyzed with Clampfit.
To further explore potential HNO targets, calcium cycling in adult mouse and rat cardiac myocytes was examined. Cells were first exposed to AS for 5-10 min, then washed and loaded with Indo-1 or Fluo-4 for 20 min. Pretreatment with AS was carried out because the drug reacted with the Ca^2+ indicators (both Fluo-4 and Indo-1) and altered their fluorescent properties. In mice, the calcium transient amplitude assessed by confocal line scan imaging increased by ˜40% over baseline with 0.5 mM AS, (n=27, p<0.001) (FIG. 3A-FIG. 3C), time to peak transient was prolonged (FIG. 3D) while the decay time shortened (FIG. 3E). Basal fluorescence (F0) was unchanged by AS pretreatment (FIG. 3F). Similar results were obtained in rat myocytes (using Indo-1) for Ca^2+ transient amplitude (FIG. 3G and FIG. 3H) and decay time (FIG. 3I). The increase in amplitude was not accompanied by an increase in diastolic Ca^2+ level (ratio 405/485=0.239±0.006 (Con) vs. 0.243±0.008 (AS); n.s.; see also FIG. 3A, FIG. 3F and FIG. 3G). Rapid sustained caffeine (10 mM) application abruptly releases all SR Ca^2+ and subsequent [Ca^2+]i decline is mediated mainly via Na/Ca exchange.

T1 sequence (E9Q401 whole entry): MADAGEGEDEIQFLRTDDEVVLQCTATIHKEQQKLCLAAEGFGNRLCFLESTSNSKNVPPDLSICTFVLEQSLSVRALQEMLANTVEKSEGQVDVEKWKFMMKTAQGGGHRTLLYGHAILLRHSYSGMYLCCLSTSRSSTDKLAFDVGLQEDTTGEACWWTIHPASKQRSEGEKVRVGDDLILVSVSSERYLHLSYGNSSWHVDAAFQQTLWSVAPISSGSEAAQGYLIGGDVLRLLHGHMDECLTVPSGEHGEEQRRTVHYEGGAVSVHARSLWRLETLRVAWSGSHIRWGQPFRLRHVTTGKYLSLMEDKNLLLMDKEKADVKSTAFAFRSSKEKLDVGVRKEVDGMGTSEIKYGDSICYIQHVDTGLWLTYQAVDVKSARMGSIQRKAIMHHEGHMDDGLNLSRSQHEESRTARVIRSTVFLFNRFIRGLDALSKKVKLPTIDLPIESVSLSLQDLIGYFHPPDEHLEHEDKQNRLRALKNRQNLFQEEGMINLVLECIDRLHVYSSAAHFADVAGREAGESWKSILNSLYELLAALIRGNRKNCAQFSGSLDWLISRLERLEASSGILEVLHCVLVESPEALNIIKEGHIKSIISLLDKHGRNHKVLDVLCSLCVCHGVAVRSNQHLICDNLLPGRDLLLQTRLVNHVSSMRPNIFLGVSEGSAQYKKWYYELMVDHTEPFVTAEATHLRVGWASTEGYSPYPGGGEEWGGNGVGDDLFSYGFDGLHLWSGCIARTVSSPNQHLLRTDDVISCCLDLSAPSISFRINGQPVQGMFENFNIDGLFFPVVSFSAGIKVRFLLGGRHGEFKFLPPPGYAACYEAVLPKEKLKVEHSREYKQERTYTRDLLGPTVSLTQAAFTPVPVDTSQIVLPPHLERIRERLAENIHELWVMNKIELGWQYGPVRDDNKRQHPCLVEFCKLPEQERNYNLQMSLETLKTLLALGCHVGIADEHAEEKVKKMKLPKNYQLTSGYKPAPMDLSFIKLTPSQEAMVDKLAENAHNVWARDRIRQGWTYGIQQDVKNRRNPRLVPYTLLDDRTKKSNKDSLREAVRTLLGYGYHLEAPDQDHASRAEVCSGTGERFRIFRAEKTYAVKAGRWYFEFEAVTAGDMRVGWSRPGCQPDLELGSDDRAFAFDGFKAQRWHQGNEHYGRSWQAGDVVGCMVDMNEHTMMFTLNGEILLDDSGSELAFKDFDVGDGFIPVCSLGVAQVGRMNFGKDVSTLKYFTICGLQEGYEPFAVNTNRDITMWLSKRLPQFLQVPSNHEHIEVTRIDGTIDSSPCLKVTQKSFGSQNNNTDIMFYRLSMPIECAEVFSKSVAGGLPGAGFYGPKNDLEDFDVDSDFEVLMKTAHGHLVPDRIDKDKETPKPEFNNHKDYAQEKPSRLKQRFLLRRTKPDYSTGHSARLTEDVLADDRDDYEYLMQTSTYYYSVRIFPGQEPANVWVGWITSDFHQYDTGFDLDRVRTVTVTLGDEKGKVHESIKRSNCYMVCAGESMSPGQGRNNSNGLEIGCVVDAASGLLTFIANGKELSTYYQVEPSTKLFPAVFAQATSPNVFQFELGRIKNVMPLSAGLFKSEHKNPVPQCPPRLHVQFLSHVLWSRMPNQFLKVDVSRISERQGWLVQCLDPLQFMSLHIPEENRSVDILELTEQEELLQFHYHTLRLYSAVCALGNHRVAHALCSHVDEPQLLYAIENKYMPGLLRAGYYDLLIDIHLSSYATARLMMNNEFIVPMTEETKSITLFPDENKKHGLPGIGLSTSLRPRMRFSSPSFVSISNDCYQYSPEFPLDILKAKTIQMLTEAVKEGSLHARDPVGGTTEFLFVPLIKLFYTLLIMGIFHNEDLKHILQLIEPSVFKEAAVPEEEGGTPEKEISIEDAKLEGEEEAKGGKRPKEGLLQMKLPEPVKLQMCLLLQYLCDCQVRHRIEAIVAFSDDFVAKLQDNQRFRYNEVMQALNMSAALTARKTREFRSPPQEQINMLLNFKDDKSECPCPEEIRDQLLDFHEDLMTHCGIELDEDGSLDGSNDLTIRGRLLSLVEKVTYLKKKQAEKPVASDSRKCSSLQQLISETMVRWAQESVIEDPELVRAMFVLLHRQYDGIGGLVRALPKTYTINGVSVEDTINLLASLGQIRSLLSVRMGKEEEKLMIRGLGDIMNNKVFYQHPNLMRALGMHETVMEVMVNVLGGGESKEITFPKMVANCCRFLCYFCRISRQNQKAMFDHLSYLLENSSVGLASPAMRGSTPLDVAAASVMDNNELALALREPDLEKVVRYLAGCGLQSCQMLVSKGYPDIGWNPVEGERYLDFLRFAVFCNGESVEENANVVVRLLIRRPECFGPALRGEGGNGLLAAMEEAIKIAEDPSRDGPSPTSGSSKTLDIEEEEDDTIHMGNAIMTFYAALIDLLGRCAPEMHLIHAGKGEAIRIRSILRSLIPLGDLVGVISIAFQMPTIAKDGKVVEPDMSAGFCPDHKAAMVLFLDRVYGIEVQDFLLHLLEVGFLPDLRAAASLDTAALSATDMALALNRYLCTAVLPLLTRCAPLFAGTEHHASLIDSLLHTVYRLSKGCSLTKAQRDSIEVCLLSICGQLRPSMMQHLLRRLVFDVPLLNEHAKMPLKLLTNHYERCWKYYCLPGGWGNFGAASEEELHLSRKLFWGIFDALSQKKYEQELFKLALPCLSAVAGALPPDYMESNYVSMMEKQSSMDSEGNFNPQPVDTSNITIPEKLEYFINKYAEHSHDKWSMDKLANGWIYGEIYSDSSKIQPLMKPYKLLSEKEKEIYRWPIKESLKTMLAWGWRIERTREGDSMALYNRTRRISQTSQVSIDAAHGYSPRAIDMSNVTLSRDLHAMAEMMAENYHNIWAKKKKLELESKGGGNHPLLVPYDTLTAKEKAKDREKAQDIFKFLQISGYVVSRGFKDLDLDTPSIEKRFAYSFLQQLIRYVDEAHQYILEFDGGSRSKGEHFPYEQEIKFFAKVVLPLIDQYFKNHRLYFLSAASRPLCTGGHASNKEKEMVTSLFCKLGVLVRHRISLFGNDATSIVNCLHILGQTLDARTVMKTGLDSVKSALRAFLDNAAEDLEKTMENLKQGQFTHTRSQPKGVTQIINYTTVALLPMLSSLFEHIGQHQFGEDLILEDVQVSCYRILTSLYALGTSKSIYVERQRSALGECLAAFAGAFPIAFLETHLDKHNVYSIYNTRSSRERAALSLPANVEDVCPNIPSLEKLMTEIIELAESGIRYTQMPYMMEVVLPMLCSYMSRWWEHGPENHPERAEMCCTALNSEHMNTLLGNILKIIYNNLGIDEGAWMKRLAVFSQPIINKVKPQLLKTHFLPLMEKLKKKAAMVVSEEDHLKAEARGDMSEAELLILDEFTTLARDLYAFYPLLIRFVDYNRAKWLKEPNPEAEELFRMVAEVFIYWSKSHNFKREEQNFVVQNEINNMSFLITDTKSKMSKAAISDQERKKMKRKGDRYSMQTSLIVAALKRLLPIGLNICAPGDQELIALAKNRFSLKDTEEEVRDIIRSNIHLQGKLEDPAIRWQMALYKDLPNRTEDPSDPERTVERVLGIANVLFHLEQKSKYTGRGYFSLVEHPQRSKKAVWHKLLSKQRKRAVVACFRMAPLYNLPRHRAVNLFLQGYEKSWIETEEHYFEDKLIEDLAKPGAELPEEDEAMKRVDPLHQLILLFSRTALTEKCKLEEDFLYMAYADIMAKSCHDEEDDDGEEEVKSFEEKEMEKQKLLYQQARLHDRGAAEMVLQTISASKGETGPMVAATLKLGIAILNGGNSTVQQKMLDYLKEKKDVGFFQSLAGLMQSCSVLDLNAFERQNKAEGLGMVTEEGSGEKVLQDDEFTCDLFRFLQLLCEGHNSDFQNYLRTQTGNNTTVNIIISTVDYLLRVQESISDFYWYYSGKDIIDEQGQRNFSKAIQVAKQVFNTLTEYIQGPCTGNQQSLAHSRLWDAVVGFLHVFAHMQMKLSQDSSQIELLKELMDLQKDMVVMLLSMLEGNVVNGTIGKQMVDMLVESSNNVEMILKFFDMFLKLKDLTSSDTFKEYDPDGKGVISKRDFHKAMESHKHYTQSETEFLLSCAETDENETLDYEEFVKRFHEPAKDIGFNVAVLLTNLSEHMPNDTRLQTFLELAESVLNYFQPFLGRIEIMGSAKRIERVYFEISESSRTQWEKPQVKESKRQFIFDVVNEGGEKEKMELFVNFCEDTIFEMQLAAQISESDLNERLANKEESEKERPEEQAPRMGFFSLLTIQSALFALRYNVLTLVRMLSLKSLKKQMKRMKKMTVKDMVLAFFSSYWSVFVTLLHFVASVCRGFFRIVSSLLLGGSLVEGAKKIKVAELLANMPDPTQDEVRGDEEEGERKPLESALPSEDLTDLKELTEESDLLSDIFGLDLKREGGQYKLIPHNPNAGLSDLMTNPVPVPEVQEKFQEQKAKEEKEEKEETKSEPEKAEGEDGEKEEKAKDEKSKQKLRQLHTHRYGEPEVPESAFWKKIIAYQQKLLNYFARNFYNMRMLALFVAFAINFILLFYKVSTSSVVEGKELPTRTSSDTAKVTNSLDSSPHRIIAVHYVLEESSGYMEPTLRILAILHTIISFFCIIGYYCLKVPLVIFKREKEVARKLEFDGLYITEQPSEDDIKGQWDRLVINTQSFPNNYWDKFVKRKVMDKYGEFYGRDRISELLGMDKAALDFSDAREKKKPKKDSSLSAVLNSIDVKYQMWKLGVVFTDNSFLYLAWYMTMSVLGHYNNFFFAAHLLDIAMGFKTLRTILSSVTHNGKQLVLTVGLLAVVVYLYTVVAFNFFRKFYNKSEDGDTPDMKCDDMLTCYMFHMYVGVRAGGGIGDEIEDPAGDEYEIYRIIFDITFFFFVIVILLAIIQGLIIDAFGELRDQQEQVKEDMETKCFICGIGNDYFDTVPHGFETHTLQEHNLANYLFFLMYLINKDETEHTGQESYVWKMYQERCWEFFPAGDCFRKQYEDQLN

calcium spark frequency relative to controls (RyR2; 0.5 mM AS): ~7 times
increase of calcium spark frequency (RyR2; 0.5 mM AS): 7 fold
frequency of calcium sparks (CSF) (RyR2; 0.5 mM AS, controls 4±1): 26±3 sparks/100 μm/s
rise in Ca2+ spark frequency (RyR2; 1 mM AS, n=10-24): 18 fold
individual spark amplitude, rise time and spatial width (RyR2; AS): unaltered
AS-induced increase in spark frequency after thiol (GSH) pre-treatment (RyR2; reduced glutathione preincubation before AS): prevented; also recorded: abrogated
SMILES: [Na+].[Na+].[O-][N+]([O-])=NO [AS, Angeli's salt]
SR Ca2+ stores (% [Ca2+]i on caffeine) (isolated mouse myocytes): 138±17%
change of cAMP FRET signal (cAMP): 0.3%±0.1%
fractional SR Ca2+ release ([1]; AS pretreated): enhanced
relative contribution of NCX to Ca2+ removal ([1]; AS pretreated cells, Con 12.4%): 8.7%
relative contribution of the SR to Ca2+ removal ([1]; AS pretreated cells, Con 87.6%): 91.3%
diastolic Ca2+ level (ratio 405/485) ([1]; AS pretreated rat myocytes, Con 0.239±0.006, n.s.): 0.243±0.008
SR Ca2+ content (total SR load, caffeine) ([1]; AS pretreated, caffeine 10 mM): unchanged; also recorded: did not alter
τ of caffeine-induced Ca2+ transient decline (Na/Ca exchange function) ([1]; caffeine 10 mM, printed 2.0±0.4 vs. 2.2±0.3, order Con vs. AS assumed): 2.2 ± 0.3 s
